# Measured values taken from patent US6365549B2, “Methods of blocking an ethylene response in plants using cyclopropene derivatives” (North Carolina State University, priority 1999, dated 2002).
# System: Patio variety tomato seedlings
# Assay: Tomato epinasty test, volatile gas treatment
# Format: in vivo
# Conditions: ethylene 10 ppm v/v, scale of 0 to 10, 10 complete protection, 0 no protection
# Protocol: The test procedure is designed to determine the ability of an compound according to the present invention to block the epinastic growth response induced by ethylene in tomato plants when the compound is administered either as a volatile gas or as a component of a spray solution. Treatment chambers are of an appropriate size for the test plants and are airtight. Each is fitted with a reusable septum to be used for injection of ethylene. Test plants are Patio variety tomato seedlings planted two plants per three inch square plastic pot. Volatile gas treatment entails placing two pots of Patio var. tomatoes into a polystyrene 4.8 L volume treatment chamber along with one-half (upper or lower section) of a 50×9 mm plastic Petri dish containing a Gelman filter pad. The appropriate amount of experimental compound, dissolved in 1.0 ml acetone, is pipetted onto the filter pad and the chamber immediately sealed. Four hours later ethylene gas equal to 10 ppm v/v final concentration is injected into the sealed chamber. Sixteen hours later the chambers are opened in an exhaust hood, allowed to air and the plants scored visually for the degree of protection against ethylene-induced epinasty conferred by the experimental compound when compared to ethylene treated and untreated controls on a scale of 0 to 10. A rating of 10 means complete protection. A rating of 0 means no protection from the effects of ethylene.
Compound,"Protection against ethylene-induced epinasty, rating (Gas 10 ppm)","Protection against ethylene-induced epinasty, rating (Gas 1000 ppm)","Protection against ethylene-induced epinasty, rating (Gas 500 ppm)","Protection against ethylene-induced epinasty, rating (Gas 750 ppm)"
1-Pentyloxyethyl-cyclopropene [Compound 15],10,,,
"CON=C(C)CCCCCCC1=CC1 (single isomer, unassigned) [Compound 47, 8-Cycloprop-1-enyl-octan-2-one O-methyl Oxime]",9.5,,,
"CCCCCCCCC1C=C1 [Compound 2, 3-Octylcyclopropene]",0,10,,
"COCCCCCCCC1=CC1 [Compound 3, 1-(7-Methoxyheptyl)-cyclopropene]",9.5,,,
"CCCCCC#CCCCCC1=CC1 [Compound 4, 1-(Undec-5-ynl)-cyclopropene]",10,,,
"OCCCCCCCC1=CC1 [Compound 5, 1-(7-Hydroxyheptyl)-cyclopropene]",0,10,,
"CC(=O)OCCCCCCCC1=CC1 [Compound 6, 1-(7-Acetoxyheptyl)-cyclopropene]",0,10,,
"O=C(O)CCCCCCC1=CC1 [Compound 7, 7-Cycloprop-1-enyl-heptanoic Acid]",3,8,,
"CC(C)N.O=C(O)CCCCCCC1=CC1 [Compound 8, 7-Cycloprop-1-enyl-heptanoic Acid Isopropylamine Salt]",0,,8,
"CCOC(=O)CCCCCCC1=CC1 [Compound 9, 7-Cycloprop-1-enyl-heptanoic Acid Ethyl Ester]",4,,,
"N#CCCCCCCCC1=CC1 [Compound 10, 1-(7-Cyanoheptyl)-cyclopropene]",2,10,,
"CCN(CC)CCCCCCCC1=CC1 [Compound 11, 1-(7-N,N-Diethylaminoheptyl)-cyclopropene]",3,10,,
"CC(=O)O.CCN(CC)CCCCCCCC1=CC1 [Compound 12, 1-(7-N,N,-Diethylammoniumheptyl)-cyclopropene Acetate]",2,10,,
"CC[N+](C)(CC)CCCCCCCC1=CC1.[I-] [Compound 13, 1-(7-N,N,N-Diethylmethylammoniumheptyl)-cyclopropene Iodide]",6,,,
"CCCCCCOCC1=CC1 [Compound 14, 1-Hexyloxymethyl-cyclopropene]",10,,,
"CCCCCC1(CCCCC)C=C1 [Compound 16, 3,3-Dipentyl-cyclopropene]",0,10,,
"CCC=CCC1=C(CCCCC)C1 [Compound 17, 1-Pent-2-enyl-2-pentyl-cyclopropene]",0,10,,
"CCC=CCC1=CC1(CCCCC)CCCCC [Compound 18, 1-Pent-2-enyl-3,3-dipentyl-cyclopropene]",0,10,,
"C=CCCCCCCC1=CC1 [Compound 19, 1-(Oct-7-enyl)-cyclopropene]",10,,,
"CC(C)(O)CCC1=CC1 [Compound 20, 4-(1-Cyclopropenyl)-2-methylbutan-2-ol]",0,8,,
"CCCCCCCCC1=C(CCCCCCCC(=O)OC)C1 [Compound 21, Methyl Sterculate]",5,9,,
CCCCCCCCCC1=CC1 [Compound 24],9.5,,,

Compound,"Protection against ethylene-induced epinasty, rating (Gas 10 ppm)","Protection against ethylene-induced epinasty, rating (Gas 1000 ppm)","Protection against ethylene-induced epinasty, rating (Gas 500 ppm)","Protection against ethylene-induced epinasty, rating (Gas 750 ppm)"
CCCCCCCCCCC1=CC1 [Compound 25],9,,,
CCCCCCCC1=CC1 [Compound 26],10,,,
CCCCCCCCCCCC1=CC1 [Compound 27],10,,,
CCCCC(CC)CCC1=CC1 (stereo not drawn) [Compound 28],9,,,
CCCCCCCCCCCCCC1=CC1 [Compound 29],3.5,10,,
COCCOCCOCC1=CC1 [Compound 30],3,10,,
CCCCCC1=CC1 [Compound 31],10,,,
CCCCCC(C)CC1=CC1 (stereo not drawn) [Compound 32],9.5,,,
CCC(=O)OCCC1=CC1 [Compound 33],0,10,,
CC(C)CCCCCC1=CC1 [Compound 34],10,,,
CC(CCC1=CC1)CC(C)(C)C (stereo not drawn) [Compound 35],10,,,
FC(F)(F)CCCCC1=CC1 [Compound 37],10,,,
CCCCCCCCCCCCCCCC1=CC1 [Compound 38],4.5,10,,
CCCCCCCCCCCCC1=CC1 [Compound 40],4,10,,
CCCCN(CCCC)CC1=CC1 [Compound 41],3,10,,
CCCCCCCCCCCCCCC1=CC1 [Compound 42],2,10,,
CC(C)(C)CCC1=CC1 [Compound 43],10,,,
CCCCCCC1=CC1CCCCCC (stereo not drawn) [Compound 44],0,10,,
CCCCCC1=C(CCCCC)C1 [Compound 45],0,10,,
"CC(=O)CCCCCCC1=CC1 [Compound 46, 8-Cycloprop-1-enyl-octan-2-one]",3,9,,
"CCN(CC)C(=O)CCCCCCC1=CC1 [Compound 48, 7-Cycloprop-1-enyl-heptanoic Acid Diethylamide]",0,7,,
Hex-5-yne 2-octylcycloprop-2-ene-1-carboxylate [Compound 22],0,,,9
